Measurements: the supplement of paper PMC5662764
± gives the standard deviation of the averaged measurements.

Key:
Test in all cases: normalised growth rate inhibition (GR value) relative to DMSO control (GR (1 = untreated growth, 0 = cytostasis, <0 = cytotoxic)); higher = less growth inhibition
Conditions in all cases: 72 h
BT20 = test system: BT20
Protocol: (§1)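 Breast cancer cell lines (BT-20, Hs 578T, MCF 10A, MCF7, MDA-MB-231, SK-BR-3) were plated in 384-well plates and treated 24 h later with drugs at six concentrations (0.04-10 µM). Viable cells were counted by Hoechst/dead-cell-stain imaging at 0 and 72 h. Counts were normalised to DMSO controls on the same plate to give the relative cell count and the growth-rate inhibition (GR) value; technical plate triplicates were averaged for each biological replicate.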

HS578T = test system: HS578T
Protocol: as §1

MCF10A = test system: MCF10A
Protocol: as §1

MCF7 = test system: MCF7
Protocol: as §1

MDAMB231 = test system: MDAMB231
Protocol: as §1

SKBR3 = test system: SKBR3
Protocol: as §1

Compound	normalised growth rate inhibition (BT20; 0.04 µM)	normalised growth rate inhibition (BT20; 0.12 µM)	normalised growth rate inhibition (BT20; 0.37 µM)	normalised growth rate inhibition (BT20; 1.11 µM)	normalised growth rate inhibition (BT20; 3.33 µM)	normalised growth rate inhibition (BT20; 10 µM)	normalised growth rate inhibition (HS578T; 0.04 µM)	normalised growth rate inhibition (HS578T; 0.12 µM)	normalised growth rate inhibition (HS578T; 0.37 µM)	normalised growth rate inhibition (HS578T; 1.11 µM)	normalised growth rate inhibition (HS578T; 3.33 µM)	normalised growth rate inhibition (HS578T; 10 µM)	normalised growth rate inhibition (MCF10A; 0.04 µM)	normalised growth rate inhibition (MCF10A; 0.12 µM)	normalised growth rate inhibition (MCF10A; 0.37 µM)	normalised growth rate inhibition (MCF10A; 1.11 µM)	normalised growth rate inhibition (MCF10A; 3.33 µM)	normalised growth rate inhibition (MCF10A; 10 µM)	normalised growth rate inhibition (MCF7; 0.04 µM)	normalised growth rate inhibition (MCF7; 0.12 µM)	normalised growth rate inhibition (MCF7; 0.37 µM)	normalised growth rate inhibition (MCF7; 1.11 µM)	normalised growth rate inhibition (MCF7; 3.33 µM)	normalised growth rate inhibition (MCF7; 10 µM)	normalised growth rate inhibition (MDAMB231; 0.04 µM)	normalised growth rate inhibition (MDAMB231; 0.12 µM)	normalised growth rate inhibition (MDAMB231; 0.37 µM)	normalised growth rate inhibition (MDAMB231; 1.11 µM)	normalised growth rate inhibition (MDAMB231; 3.33 µM)	normalised growth rate inhibition (MDAMB231; 10 µM)	normalised growth rate inhibition (SKBR3; 0.04 µM)	normalised growth rate inhibition (SKBR3; 0.12 µM)	normalised growth rate inhibition (SKBR3; 0.37 µM)	normalised growth rate inhibition (SKBR3; 1.11 µM)	normalised growth rate inhibition (SKBR3; 3.33 µM)	normalised growth rate inhibition (SKBR3; 10 µM)
C=CC(=O)Nc1cccc(Nc2nc(NC3CCC(N(C)C)CC3)nc3c2ncn3C(C)C)c1 (configuration not stated) [WZ-3105]	0.223 ± 0.13	0.0547 ± 0.14	-0.0538 ± 0.17	-0.207 ± 0.19	-0.253 ± 0.18	-0.328 ± 0.19	-0.121 ± 0.089	-0.138 ± 0.075	-0.127 ± 0.097	-0.135 ± 0.11	-0.147 ± 0.1	-0.143 ± 0.14	0.523 ± 0.12	0.188 ± 0.13	-0.101 ± 0.14	-0.224 ± 0.24	-0.245 ± 0.25	-0.269 ± 0.24	-0.317 ± 0.065	-0.303 ± 0.097	-0.28 ± 0.11	-0.254 ± 0.091	-0.27 ± 0.062	-0.296 ± 0.05	-0.23 ± 0.13	-0.232 ± 0.15	-0.235 ± 0.16	-0.237 ± 0.16	-0.232 ± 0.12	-0.132 ± 0.12	-0.298 ± 0.15	-0.287 ± 0.18	-0.269 ± 0.18	-0.273 ± 0.18	-0.266 ± 0.15	-0.227 ± 0.19
COc1cc(C(=O)N2CCC(N3CCN(C)CC3)CC2)ccc1Nc1ncc2c(n1)N(C)c1ccccc1C(=O)N2C [XMD-1150]	0.885 ± 0.11	0.85 ± 0.16	0.803 ± 0.16	0.722 ± 0.17	0.551 ± 0.12	0.238 ± 0.15	0.964 ± 0.035	0.913 ± 0.051	0.815 ± 0.034	0.66 ± 0.0096	0.411 ± 0.039	-0.053 ± 0.089	0.973 ± 0.013	0.937 ± 0.021	0.841 ± 0.036	0.665 ± 0.078	0.384 ± 0.12	0.123 ± 0.052	0.852 ± 0.021	0.784 ± 0.014	0.599 ± 0.018	0.365 ± 0.034	0.201 ± 0.012	0.0333 ± 0.0087	0.891 ± 0.054	0.818 ± 0.088	0.567 ± 0.12	0.353 ± 0.077	0.189 ± 0.029	0.0699 ± 0.13	0.677 ± 0.17	0.669 ± 0.12	0.609 ± 0.12	0.514 ± 0.16	0.348 ± 0.18	0.0641 ± 0.18
FC(F)c1nc2ccccc2n1-c1nc(N2CCOCC2)nc(N2CCOCC2)n1 [ZSTK-474]	0.971 ± 0.029	0.855 ± 0.16	0.615 ± 0.27	0.211 ± 0.17	0.0764 ± 0.14	-0.0662 ± 0.025	0.806 ± 0.017	0.663 ± 0.032	0.522 ± 0.088	0.394 ± 0.12	0.289 ± 0.1	0.148 ± 0.11	0.954 ± 0.065	0.842 ± 0.12	0.698 ± 0.16	0.472 ± 0.083	0.296 ± 0.049	0.179 ± 0.069	0.664 ± 0.2	0.37 ± 0.18	0.138 ± 0.048	0.0423 ± 0.065	0.00162 ± 0.071	-0.0168 ± 0.11	0.881 ± 0.062	0.828 ± 0.055	0.728 ± 0.025	0.646 ± 0.061	0.511 ± 0.077	0.386 ± 0.11	0.783 ± 0.087	0.46 ± 0.06	0.161 ± 0.1	0.0252 ± 0.12	-0.0251 ± 0.15	-0.031 ± 0.13
CN(C)C/C=C/C(=O)Nc1cc2c(Nc3ccc(F)c(Cl)c3)ncnc2cc1O[C@H]1CCOC1 [afatinib]	0.704 ± 0.031	0.789 ± 0.017	0.814 ± 0.027	0.868 ± 0.059	0.855 ± 0.035	0.0471 ± 0.25	0.9498 ± 0.0056	0.944 ± 0.032	0.944 ± 0.021	0.899 ± 0.025	0.852 ± 0.059	-0.152 ± 0.04	0.034 ± 0.14	0.0299 ± 0.097	0.034 ± 0.07	0.0532 ± 0.05	0.058 ± 0.067	0.0354 ± 0.032	0.784 ± 0.14	0.81 ± 0.15	0.865 ± 0.079	0.736 ± 0.11	0.603 ± 0.15	-0.239 ± 0.083	0.845 ± 0.14	0.873 ± 0.047	0.755 ± 0.041	0.641 ± 0.09	0.537 ± 0.043	-0.205 ± 0.11	-0.137 ± 0.2	-0.13 ± 0.17	-0.117 ± 0.16	-0.0678 ± 0.2	-0.0514 ± 0.15	-0.171 ± 0.11
CN1CC[C@H](c2c(O)cc(O)c3c(=O)cc(-c4ccccc4Cl)oc23)[C@H](O)C1 [alvocidib]	0.324 ± 0.32	-0.0878 ± 0.2	-0.251 ± 0.083	-0.35 ± 0.19	-0.339 ± 0.2	-0.365 ± 0.21	0.48 ± 0.23	-0.156 ± 0.1	-0.206 ± 0.082	-0.196 ± 0.11	-0.193 ± 0.098	-0.188 ± 0.11	0.197 ± 0.27	-0.2 ± 0.16	-0.288 ± 0.23	-0.281 ± 0.24	-0.281 ± 0.25	-0.263 ± 0.22	-0.0866 ± 0.19	-0.328 ± 0.037	-0.335 ± 0.068	-0.359 ± 0.057	-0.361 ± 0.077	-0.364 ± 0.07	0.184 ± 0.25	-0.239 ± 0.12	-0.273 ± 0.13	-0.273 ± 0.16	-0.282 ± 0.14	-0.287 ± 0.16	0.102 ± 0.038	-0.287 ± 0.2	-0.32 ± 0.26	-0.367 ± 0.21	-0.357 ± 0.22	-0.391 ± 0.21
Cc1cc2c(F)c(Oc3ncnn4cc(OC[C@@H](C)O)c(C)c34)ccc2[nH]1 [brivanib]	0.949 ± 0.039	0.935 ± 0.016	0.956 ± 0.012	0.928 ± 0.024	0.925 ± 0.047	0.798 ± 0.03	0.963 ± 0.016	0.952 ± 0.02	0.963 ± 0.011	0.9364 ± 0.0061	0.9281 ± 0.0053	0.797 ± 0.055	0.992 ± 0.017	0.977 ± 0.023	0.969 ± 0.016	0.883 ± 0.043	0.74 ± 0.071	0.316 ± 0.043	0.902 ± 0.093	0.864 ± 0.064	0.898 ± 0.079	0.908 ± 0.062	0.949 ± 0.029	0.86 ± 0.035	0.902 ± 0.11	0.892 ± 0.081	0.91 ± 0.062	0.923 ± 0.062	0.895 ± 0.1	0.667 ± 0.094	0.811 ± 0.14	0.798 ± 0.17	0.807 ± 0.15	0.861 ± 0.11	0.85 ± 0.11	0.822 ± 0.1
Nc1cc(C(F)(F)F)c(-c2cc(N3CCOCC3)nc(N3CCOCC3)n2)cn1 [buparlisib]	1.01 ± 0.029	0.868 ± 0.1	0.501 ± 0.11	0.0131 ± 0.038	-0.261 ± 0.11	-0.346 ± 0.12	0.955 ± 0.025	0.845 ± 0.028	0.679 ± 0.039	0.142 ± 0.16	-0.17 ± 0.099	-0.231 ± 0.091	1 ± 0.012	0.956 ± 0.044	0.857 ± 0.11	0.487 ± 0.23	0.0221 ± 0.089	-0.181 ± 0.12	0.759 ± 0.25	0.475 ± 0.18	0.148 ± 0.069	-0.113 ± 0.032	-0.188 ± 0.0036	-0.189 ± 0.021	1.05 ± 0.063	0.978 ± 0.027	0.844 ± 0.04	0.487 ± 0.062	0.0994 ± 0.052	-0.255 ± 0.12	0.917 ± 0.09	0.651 ± 0.1	0.145 ± 0.056	-0.203 ± 0.16	-0.281 ± 0.14	-0.332 ± 0.13
